Reference: patent US9457033B2, “Steroid alkaloids and uses thereof as antimicrobial agents against electron transport-deficient microbes and as potentiators for antimicrobial agents against pathogenic bacteria” (priority 2011, dated 2016)
In brackets after ≈: the same amount, converted by molar mass. Where two headings read alike, the source gives them in different places.

Tests used:
[1] = test system: all tested S. aureus strains; assay: Average potentiation of aminoglycoside MIC by tomatidine (FIGS. 6, 7); type: cell-based, Staphylococcus aureus; conditions: tomatidine at 8 μg/ml
S. aureus Sa228c = assay: MIC, microdilution in CAMHB 24 h; type: cell-based, Staphylococcus aureus; conditions: for Fold (−TO/+TO): Sa228c, 8 μg/ml of tomatidine; for MIC: Staphylococcus aureus
S. hominis ssp008c = assay: MIC, microdilution, with or without tomatidine; conditions: for MIC: Staphylococcus hominis, SSP008C
S. aureus MRSA COL = assay: MIC, microdilution in CAMHB 24 h; type: cell-based, Staphylococcus aureus; conditions: MRSA COL; for MIC: Staphylococcus aureus
S. aureus ATCC 29213 = assay: MIC, microdilution in CAMHB 24 h, with or without tomatidine/compound; type: cell-based, Staphylococcus aureus; conditions: for MIC: Staphylococcus aureus
S. aureus MA078038 = assay: MIC, microdilution in CAMHB 24 h; type: cell-based, Staphylococcus aureus; conditions: for MIC: Staphylococcus aureus
[2] = test system: S. epidermidis ATCC 35984; assay: MIC, microdilution, with or without tomatidine; conditions: for MIC: Staphylococcus epidermidis
[3] = test system: S. epidermidis ATCC 12228; assay: MIC, microdilution, with or without tomatidine; conditions: for MIC: Staphylococcus epidermidis
S. aureus CF6B-L = assay: MIC, microdilution in CAMHB 24 h; type: cell-based, Staphylococcus aureus; conditions: CF6B-L; for MIC: Staphylococcus aureus, CF6BL
S. hominis sho23 = assay: MIC, microdilution, with or without tomatidine; conditions: for MIC: Staphylococcus hominis
S. haemolyticus sh032 = assay: MIC, microdilution, with or without tomatidine; conditions: for MIC: Staphylococcus haemolyticus
S. haemolyticus sh022 = assay: MIC, microdilution, with or without tomatidine; conditions: for MIC: Staphylococcus haemolyticus
[4] = 8 μg/ml of tomatidine, read-out: MIC +TO
[5] = absence of tomatidine, read-out: MIC −TO
[6] = ATCC 29123, 8 μg/ml of tomatidine
[7] = ATCC 29213, tomatidine at 8 μg/ml
[8] = ATCC 29123 / ATCC 29213, ATCC 29123, 8 μg/ml of tomatidine, read-out: MIC +TO
[9] = ATCC 29123 / ATCC 29213, ATCC 29123, absence of tomatidine, read-out: MIC −TO
[10] = ATCC29213, ATCC 29213, Human (SSTI), read-out: MIC
[11] = ATCC29213, ATCC 29213, absence of tomatidine, read-out: MIC −TO
[12] = ATCC29213, ATCC 29213, presence of tomatidine at 8 μg/ml, read-out: MIC +TO
[13] = MA078038, 8 μg/ml of tomatidine
[14] = MA078038, aph(3′)-IIIa, 8 μg/ml of tomatidine, read-out: MIC +TO
[15] = MA078038, aph(3′)-IIIa, absence of tomatidine, read-out: MIC −TO
[16] = MA078038, Human (CA), MRSA, read-out: MIC
[17] = aac(6′)-aph(2″), 8 μg/ml of tomatidine, read-out: MIC +TO
[18] = aac(6′)-aph(2″), absence of tomatidine, read-out: MIC −TO
[19] = Human (CF lungs), read-out: MIC

NC[C@H]1O[C@H](O[C@H]2[C@H](O)[C@@H](O[C@H]3O[C@H](CO)[C@@H](O)[C@H](N)[C@H]3O)[C@H](N)C[C@@H]2N)[C@H](N)C[C@@H]1O [Tobramycin, tobramycin]
average increase of antibacterial activity [1]: 8±3 fold | Fold (−TO/+TO) (S. aureus Sa228c): 4-8 fold | MIC (S. aureus Sa228c; SA228C, read-out: MIC +TO): 128 to 256 µg/mL (≈ 274 to 548 µM) | MIC (S. aureus Sa228c; SA228C, read-out: MIC −TO): 1020 µg/mL (≈ 2190 µM) | Fold (−TO/+TO) (S. hominis ssp008c; S. hominis ssp008c, 8 μg/ml of tomatidine): 4 fold | MIC (S. hominis ssp008c; read-out: MIC +TO): 8 µg/mL (≈ 17.1 µM) | MIC (S. hominis ssp008c; read-out: MIC −TO): 32 µg/mL (≈ 68.4 µM) | Fold (−TO/+TO) (S. aureus MRSA COL; 8 μg/ml of tomatidine): 8-16 fold | MIC (S. aureus MRSA COL; [4]): 0.06 µg/mL (≈ 0.128 µM) | MIC (S. aureus MRSA COL; Human (SSTI), read-out: MIC): 0.5 to 1 µg/mL (≈ 1.07 to 2.14 µM) | MIC (S. aureus MRSA COL; [5]): 0.5 to 1 µg/mL (≈ 1.07 to 2.14 µM) | Fold (−TO/+TO) (S. aureus ATCC 29213; [6]): 4-16 fold | Fold (−TO/+TO) (S. aureus ATCC 29213; [7]): 4-8 fold | MIC (S. aureus ATCC 29213; [8]): 0.03 to 0.06 µg/mL (≈ 0.0642 to 0.128 µM) | MIC (S. aureus ATCC 29213; [9]): 0.25 to 0.5 µg/mL (≈ 0.535 to 1.07 µM) | MIC (S. aureus ATCC 29213; [10]): 0.25 to 0.5 µg/mL (≈ 0.535 to 1.07 µM) | MIC (S. aureus ATCC 29213; [11]): 0.25 to 0.5 µg/mL (≈ 0.535 to 1.07 µM) | MIC (S. aureus ATCC 29213; [12]): 0.06 µg/mL | Fold (−TO/+TO) (S. aureus MA078038; [13]): 4-8 fold | MIC (S. aureus MA078038; [14]): 0.06 to 0.12 µg/mL (≈ 0.128 to 0.257 µM) | MIC (S. aureus MA078038; [15]): 0.5 µg/mL (≈ 1.07 µM) | MIC (S. aureus MA078038; [16]): 0.5 µg/mL (≈ 1.07 µM) | Fold (−TO/+TO) ([2]; S. epidermidis ATCC 35984, 8 μg/ml of tomatidine): 8 fold | MIC ([2]; ATCC35984, read-out: MIC +TO): 2 µg/mL (≈ 4.28 µM) | MIC ([2]; ATCC35984, read-out: MIC −TO): 16 µg/mL (≈ 34.2 µM) | Fold (−TO/+TO) ([3]; S. epidermidis ATCC 12228, 8 μg/ml of tomatidine): 2 fold | MIC ([3]; ATCC12228, read-out: MIC +TO): 0.06 µg/mL (≈ 0.128 µM) | MIC ([3]; ATCC12228, read-out: MIC −TO): 0.12 µg/mL (≈ 0.257 µM) | Fold (−TO/+TO) (S. aureus CF6B-L; 8 μg/ml of tomatidine): 4-16 fold | MIC (S. aureus CF6B-L; [17]): 16 to 64 µg/mL (≈ 34.2 to 137 µM) | MIC (S. aureus CF6B-L; [18]): 256 µg/mL (≈ 548 µM) | MIC (S. aureus CF6B-L; [19]): 256 µg/mL (≈ 548 µM) | Fold (−TO/+TO) (S. hominis sho23; S. hominis sho23, 8 μg/ml of tomatidine): 4 fold | MIC (S. hominis sho23; SHO23, read-out: MIC +TO): 1 µg/mL (≈ 2.14 µM) | MIC (S. hominis sho23; SHO23, read-out: MIC −TO): 4 µg/mL (≈ 8.56 µM) | Fold (−TO/+TO) (S. haemolyticus sh032; S. haemolyticus sh032, 8 μg/ml of tomatidine): 16 fold | MIC (S. haemolyticus sh032; SH032, read-out: MIC +TO): 2 µg/mL (≈ 4.28 µM) | MIC (S. haemolyticus sh032; SH032, read-out: MIC −TO): 32 µg/mL (≈ 68.4 µM) | Fold (−TO/+TO) (S. haemolyticus sh022; S. haemolyticus sh022, 8 μg/ml of tomatidine): 8 fold | MIC (S. haemolyticus sh022; SH022, read-out: MIC +TO): 4 µg/mL (≈ 8.56 µM) | MIC (S. haemolyticus sh022; SH022, read-out: MIC −TO): 32 µg/mL (≈ 68.4 µM)

NC[C@H]1O[C@H](O[C@H]2[C@H](O)[C@@H](O[C@H]3O[C@H](CO)[C@@H](O)[C@H](N)[C@H]3O)[C@H](N)C[C@@H]2N)[C@H](O)[C@@H](O)[C@@H]1O [Kanamycin, kanamycin]
Fold (−TO/+TO) (S. aureus Sa228c): 2-8 fold | MIC (S. aureus Sa228c; MRSA): 512 to 1020 µg/mL (≈ 1060 to 2110 µM) | MIC (S. aureus Sa228c; SA228C, read-out: MIC +TO): 128 to 256 µg/mL (≈ 264 to 528 µM) | MIC (S. aureus Sa228c; SA228C, read-out: MIC −TO): 512 to 1020 µg/mL (≈ 1060 to 2110 µM) | Fold (−TO/+TO) (S. aureus MRSA COL; 8 μg/ml of tomatidine): 8 fold | MIC (S. aureus MRSA COL; [4]): 0.5 µg/mL (≈ 1.03 µM) | MIC (S. aureus MRSA COL; Human (SSTI), read-out: MIC): 4 µg/mL (≈ 8.26 µM) | MIC (S. aureus MRSA COL; [5]): 4 µg/mL (≈ 8.26 µM) | Fold (−TO/+TO) (S. aureus ATCC 29213; [6]): 4-8 fold | Fold (−TO/+TO) (S. aureus ATCC 29213; [7]): 4-8 fold | MIC (S. aureus ATCC 29213; [8]): 0.5 µg/mL (≈ 1.03 µM) | MIC (S. aureus ATCC 29213; [9]): 2 to 4 µg/mL (≈ 4.13 to 8.26 µM) | MIC (S. aureus ATCC 29213; [10]): 2 to 4 µg/mL (≈ 4.13 to 8.26 µM) | MIC (S. aureus ATCC 29213; [11]): 2 to 4 µg/mL (≈ 4.13 to 8.26 µM) | MIC (S. aureus ATCC 29213; [12]): 0.5 µg/mL | Fold (−TO/+TO) (S. aureus MA078038; [13]): >1 fold | MIC (S. aureus MA078038; [14]): 1020 µg/mL (≈ 2110 µM) | MIC (S. aureus MA078038; [15]): > 1020 µg/mL | MIC (S. aureus MA078038; [16]): > 1020 µg/mL | Fold (−TO/+TO) (S. aureus CF6B-L; 8 μg/ml of tomatidine): 4-8 fold | MIC (S. aureus CF6B-L; [17]): 128 to 256 µg/mL (≈ 264 to 528 µM) | MIC (S. aureus CF6B-L; [18]): 1020 µg/mL (≈ 2110 µM) | MIC (S. aureus CF6B-L; [19]): 1020 µg/mL (≈ 2110 µM)
